Test results as given in article PMC5866837, “Towards a generic physiologically based kinetic model to predict in vivo uterotrophic responses in rats by reverse dosimetry of in vitro estrogenicity data” (Archives of Toxicology, 2017).
Read-outs that look alike come from different tables or passages of the source. One block for each molecule: values may come before it.

Experiments:
uterus weight in rats [1] = test: In vivo uterotrophic assay and BMD analysis (PROAST) of its data; design: species or system rat; details: for BMD (BMD10) / BMDL (BMDL10) / BMDU (BMDU10): PROAST exponential model, BMR 10%, absolute uterus weight; for BMDL (BMDL10) / BMDU (BMDU10): in mg/kg
Experimental: To that end, a literature research was performed using the search terms uterotrophic assay, rats, oral administration.
Furthermore, benchmark dose (BMD) values derived from the predicted dose–response data were compared with BMD values derived from the dose–response data from the uterotrophic assay as reported in the literature. To that end, BMD modelling was applied on dose–response data using the exponential model for continuous data of the PROAST software from The National Institute for Public Health and the Environment of the Netherlands (RIVM) version 38.9 (Slob [2002]). The benchmark response (BMR) was defined as a 10% increase of response change compared to the control. The predicted dose level with an estimated 10% extra risk obtained is shown as BMD10. The lower and upper limits of the 95% confidence interval on the BMD10 are defined as BMDL10 and BMDU10. In PROAST, BMD values are only reported if the model fit of the data is accepted, so when the software provided BMD values, it was assumed that the data had been adequately modelled. […] For in vivo studies, the absolute uterus weight values were used as input for the response in the continuous model.

[2] = Rapid equilibrium dialysis (RED), fraction unbound in rat serum; format: in vitro ADME; details: RED 5 h at 37 °C, read-out: f ub (fraction unbound)
Experimental: (§1) The assay medium used in the ER-CALUX and the proliferation assay contains 5% FCS, so the RED assay was performed using the assay medium for these two assays and for rat serum. The f ub was determined using the protocol described by Waters et al. ([2008]). The RED device insert has two chambers, a plasma and a buffer chamber. […] After incubating for 5 h at 37 °C at 250 rpm on an orbital shaker, the system reaches equilibrium (van […] et al. [2011]). 25 μL of post-dialysis samples were collected from the plasma and buffer chambers in separate tubes. Simultaneously, 25 μL of corresponding buffer (PBS) was added to the sample taken from the plasma chamber and the same volume of corresponding rat serum or in vitro medium was added to the sample taken from the buffer chamber. Then, 300 μL cold precipitation buffer (90/10 ACN/water) was added to both samples to precipitate the proteins and release the compound. The samples were put on ice for 30 min and subsequently centrifuged for 15 min at 15,000×g (CT 15RE, Hitachi Koki Co., Ltd). Then, the supernatants were collected for UPLC analysis. By determining the compound concentration in each chamber, the fraction unbound can be calculated with the following equation: f ub = concentration in buffer chamber/concentration in plasma chamber (van […] et al. [2011]; Waters et al. [2008]). […]

human ERs = test system: human ERs; design: method as in Kolle et al. [2010]; Wang et al. [2014]; details: ref Kolle et al. [2010]; Wang et al. [2014]; cited from earlier work
uterus weight in rats [3] = details: oral gavage, cited from earlier work
[4] = rat, oral, read-out: In vivo C max, cited from earlier work
[5] = Rapid equilibrium dialysis (RED), fraction unbound in in vitro assay medium; format: in vitro ADME; details: bovine, assay medium with 5% FCS, RED 5 h at 37 °C, read-out: f ub (fraction unbound)
Experimental: as §1

[6] = in vivo data of Kanno et al. 2003 (doses in mg/kg bw)
[7] = in vivo data of Tinwell and Ashby 2004 (doses in mg/kg bw)
[8] = in vivo data of Odum et al. 1997 (doses in mg/kg bw)

Compound: CC(C)(c1ccc(O)cc1)c1ccc(O)cc1 [BPA, bisphenol A]
Fold difference in BMD10 values between the two in vivo studies (uterus weight in rats [1]; Kanno et al. 2003 vs Tinwell and Ashby 2004): 25.8 fold
BMD (BMD10) (uterus weight in rats [1]; [6]): 207 mg/kg
BMDL (BMDL10) (uterus weight in rats [1]; [6]): 62.66
BMDU (BMDU10) (uterus weight in rats [1]; [6]): 516.80
BMD (BMD10) (uterus weight in rats [1]; [7]): 8.02 mg/kg
BMDL (BMDL10) (uterus weight in rats [1]; [7]): 1.00
BMDU (BMDU10) (uterus weight in rats [1]; [7]): 37.13
fraction unbound at 5 h, 5 µM [2]: 0.04 ± 0.001
Higher concentrations required for an estrogenic response in the YES assay than in MCF-7/BOS proliferation and U2OS ER-CALUX assays (human ERs): 3 orders of magnitude
Mean value of uterus weight (uterus weight in rats [3]; rat (AP), 10 mg/kg bw, ref Tinwell and Ashby 2004): 23.9 mg
Mean value of uterus weight (uterus weight in rats [3]; rat (AP), 100 mg/kg bw, ref Tinwell and Ashby 2004): 29.0 mg
Mean value of uterus weight (uterus weight in rats [3]; rat (AP), 300 mg/kg bw, ref Tinwell and Ashby 2004): 38.5 mg
Mean value of uterus weight (uterus weight in rats [3]; rat (AP), 600 mg/kg bw, ref Tinwell and Ashby 2004): 41.4 mg
Mean value of uterus weight (uterus weight in rats [3]; rat (AP), 800 mg/kg bw, ref Tinwell and Ashby 2004): 59.0 mg
Mean value of uterus weight (uterus weight in rats [3]; rat (Sprague–Dawley), 60 mg/kg bw, ref Kanno et al. 2003): 26.8 mg
Mean value of uterus weight (uterus weight in rats [3]; rat (Sprague–Dawley), 200 mg/kg bw, ref Kanno et al. 2003): 30.1 mg
Mean value of uterus weight (uterus weight in rats [3]; rat (Sprague–Dawley), 375 mg/kg bw, ref Kanno et al. 2003): 30.4 mg
Mean value of uterus weight (uterus weight in rats [3]; rat (Sprague–Dawley), 600 mg/kg bw, ref Kanno et al. 2003): 37.0 mg
Mean value of uterus weight (uterus weight in rats [3]; rat (Sprague–Dawley), 1000 mg/kg bw, ref Kanno et al. 2003): 44.1 mg
Cmax ([4]; 10 mg/kg bw, ref Pottenger et al. (2000)): 175 nM
Cmax ([4]; 100 mg/kg bw, ref Pottenger et al. (2000)): 9880 nM
fraction unbound at 5 h, 5 µM [5]: 0.461 ± 0.035

BMD (BMD10) (uterus weight in rats [1]; [8]): 0.0134 mg/kg
BMDL (BMDL10) (uterus weight in rats [1]; [8]): 0.002915
BMDU (BMDU10) (uterus weight in rats [1]; [8]): 0.03371
fraction unbound at 5 h, 5 µM [2]: 0.05 ± 0.005
fraction unbound at 5 h, 5 µM [5]: 0.628 ± 0.012
Compound: C[C@]12CC[C@@H]3c4ccc(O)cc4CC[C@H]3[C@@H]1CC[C@@H]2O [E2, 17β-estradiol]
Higher concentrations required for an estrogenic response in the YES assay than in MCF-7/BOS proliferation and U2OS ER-CALUX assays (human ERs): 2 orders of magnitude
Mean value of uterus weight (uterus weight in rats [3]; rat (AP), 0.01 mg/kg bw, ref Odum et al., 1997): 37.5 mg
Mean value of uterus weight (uterus weight in rats [3]; rat (AP), 0.02 mg/kg bw, ref Odum et al., 1997): 39 mg
Mean value of uterus weight (uterus weight in rats [3]; rat (AP), 0.04 mg/kg bw, ref Odum et al., 1997): 38.3 mg
Mean value of uterus weight (uterus weight in rats [3]; rat (AP), 0.10 mg/kg bw, ref Odum et al., 1997): 68.1 mg
Mean value of uterus weight (uterus weight in rats [3]; rat (AP), 0.20 mg/kg bw, ref Odum et al., 1997): 70.9 mg
Mean value of uterus weight (uterus weight in rats [3]; rat (AP), 0.40 mg/kg bw, ref Odum et al., 1997): 101.7 mg
Cmax ([4]; 0.02 mg/kg bw, ref Bawarshi-Nassar et al. (1989)): 0.6 nM
Cmax ([4]; 0.08 mg/kg bw, ref Bawarshi-Nassar et al. (1989)): 2.7 nM
